Measurements taken from patent publication US9067892B2, “Spiroheterocyclic N-oxypiperidines as pesticides” (Syngenta Crop Protection, Inc., priority 2008, dated 2015).

Experiments:
[1] = test system: Tetranychus urticae (two-spotted spider mite); experiment: Example B4: Tetranychus urticae, mixed population, feeding/residual contact activity, preventive; type: in vivo; settings: foliar, 192 h, bean leaf discs sprayed, 8 days, egg, larval and adult mortality
Text: Activity Against Tetranychus urticae (Two-Spotted Spider Mite) (Mixed Population, Feeding/Residual Contact Activity, Preventive) Bean leaf discs on agar in 24-well microtiter plates are sprayed with test solutions. […] 8 days later, discs are checked for egg mortality, larval mortality, and adult mortality.

[2] = test system: Nilaparvata lugens (brown rice planthopper); experiment: Example B8: Nilaparvata lugens, larvicide, feeding/contact; type: in vivo; settings: rice seedlings sprayed, N3 nymphs, 6-12 days after treatment
Protocol: Activity Against Nilaparvata lugens (Brown Rice Planthopper) (Larvicide, Feeding/Contact) Rice seedlings are treated with the diluted test solutions in a spray chamber. After drying, they are infested with 20 N3 nymphs (2 replicates). 6-12 days after the treatment samples are checked for mortality, growth regulation, and effects on the F1 generation.

[3] = test system: Aphis craccivora (cowpea aphid); experiment: Example B11: translaminar activity against Aphis craccivora; type: in vivo; settings: 120 h, French bean leaves, aphids on lower side, upper side painted, 5 days, mortality
Protocol: Translaminar Activity Against Aphis craccivora (Cowpea Aphid) French bean leaves (Phaseolus vulgaris) are infested with about 20 mixed age individuals on the lower leaf side using clip cages. 1 day after the infestation, the upper side of the leaves is treated with the test solution by painting. 5 days later, samples are checked for mortality.

[4] = test system: Myzus persicae (green peach aphid); experiment: Example B16: Myzus persicae on pepper plants, feeding/residual contact activity; type: in vivo; settings: 144 h, infested pepper plants sprayed, 6 days after treatment, mortality, read-out: activity against Myzus persicae
[5] = test system: Myzus persicae (green peach aphid); experiment: Example B1: Myzus persicae, mixed population, feeding/residual contact activity, preventive; settings: foliar, 144 h, read-out: activity
[6] = test system: Myzus persicae (green peach aphid); experiment: Example B2: Myzus persicae, mixed population, systemic/feeding activity, curative; settings: 144 h, read-out: activity
[7] = test system: Thrips Tabaci (onion thrips); experiment: Example B3: Thrips tabaci, mixed population, feeding/residual contact activity, preventive; type: in vivo; settings: foliar, 144 h, sunflower leaf discs sprayed, 6 days incubation, mortality

SMILES	pest or weed control at 400 ppm [1] [%]	pest or weed control at 200 ppm [4] [%]	pest or weed control at 400 ppm [5] [%]	other results
CCOC(=O)OC1=C(c2cc(C)ccc2C)C(=O)N(C)C12CCN(OC)CC2 [P1.1]	–	–	–	melting point: 96 to 110 °C
CCOC(=O)OC1=C(c2c(C)cc(C)cc2C)C(=O)N(CC2CC2)C12CCN(OC)CC2 [P1.5]	> 80	≥ 80	–	pest or weed control at 400 ppm [2]: > 80%; pest or weed control at 400 ppm [3]: > 80%
CCOC(=O)OC1=C(c2c(C)cc(C)cc2Cl)C(=O)N(C)C12CCN(OC)CC2 [P1.6]	> 80	–	> 80	–
CCOC(=O)OC1=C(c2c(C)cc(C)cc2C)C(=O)N(C2CC2)C12CCN(OC)CC2 [P1.7]	–	–	> 80	–
CCOC(=O)OC1=C(c2c(C)cc(C)cc2C)C(=O)N(CC)C12CCN(OC)CC2 [P1.8]	–	–	–	melting point: 101 to 103 °C
CCOC(=O)OC1=C(c2c(Cl)ccc(C)c2F)C(=O)N(C)C12CCN(OC)CC2 [P1.9]	> 80	–	–	–
CCOC(=O)OC1=C(c2c(F)ccc(C)c2Cl)C(=O)N(C)C12CCN(OC)CC2 [P1.10]	–	–	–	pest or weed control at 400 ppm [6]: > 80%
CCOC(=O)OC1=C(c2c(C)cc(Br)cc2C)C(=O)N(C)C12CCN(OC)CC2 [P1.12]	> 80	≥ 80	> 80	–
CCOC(=O)OC1=C(c2c(C)cccc2C)C(=O)N(C)C12CCN(OC)CC2 [P1.13]	–	≥ 80	> 80	–
CCOC(=O)OC1=C(c2c(C)cc(C)cc2C)C(=O)N(CCCOC)C12CCN(OC)CC2 [P1.16]	> 80	≥ 80	> 80	–
CCOC(=O)OC1=C(c2c(C)cc(C)cc2C)C(=O)N(CCOCOC)C12CCN(OC)CC2 [P1.17]	–	–	> 80	pest or weed control at 400 ppm [6]: > 80%
CCOC(=O)OC1=C(c2cc(C)c(C)cc2Br)C(=O)N(C)C12CCN(OC)CC2 [P1.20]	–	–	–	melting point: 158 to 159 °C
CCOC(=O)OC1=C(c2c(C)ccc(C)c2C)C(=O)N(C)C12CCN(OC)CC2 [P1.21]	> 80	≥ 80	–	–
CCOC(=O)OC1=C(c2cc(C)c(C)cc2Cl)C(=O)N(C)C12CCN(OC)CC2 [P1.22]	–	–	–	melting point: 149 to 150 °C
CCOC(=O)OC1=C(c2ccc(C)cc2C)C(=O)N(C)C12CCN(OC)CC2 [P1.25]	> 80	≥ 80	> 80	–
CCOC(=O)OC1=C(c2c(C)cc(C)cc2C)C(=O)N(CC2CCCO2)C12CCN(OC)CC2 (stereo not shown) [P1.26]	> 80	–	–	–
CCOC(=O)OC1=C(c2c(C)ccc(Cl)c2C)C(=O)N(C)C12CCN(OC)CC2 [P1.27]	–	≥ 80	> 80	–
CCOC(=O)OC1=C(c2cc(C)c(Cl)cc2C)C(=O)N(C)C12CCN(OC)CC2 [P1.28]	–	–	–	pest or weed control at 400 ppm [7]: > 80%
CCOC(=O)OC1=C(c2c(C)cc(Cl)cc2C)C(=O)N(C)C12CCN(OC)CC2 [P1.29]	–	≥ 80	> 80	–
CON1CCC2(CC1)C(O)=C(c1cc(C)ccc1C)C(=O)N2C [P2.1]	–	–	–	melting point: 121 to 123 °C
CON1CCC2(CC1)C(O)=C(c1ccc(Cl)cc1Cl)C(=O)N2CC(F)F [P2.4]	–	–	> 80	–
CON1CCC2(CC1)C(O)=C(c1c(C)cc(C)cc1C)C(=O)N2CC1CC1 [P2.8, 1-Cyclopropylmethyl-4-hydroxy-8-methoxy-3-(2,4,6-trimethyl-phenyl)-1,8-diaza-spiro[4.5]dec-3-en-2-one]	–	–	–	melting point: 223 to 225 °C
CON1CCC2(CC1)C(O)=C(c1c(C)cc(C)cc1Cl)C(=O)N2C [P2.9]	> 80	–	> 80	pest or weed control at 400 ppm [6]: > 80%

SMILES	pest or weed control at 400 ppm [1] [%]	pest or weed control at 200 ppm [4] [%]	pest or weed control at 400 ppm [5] [%]	other results
CON1CCC2(CC1)C(O)=C(c1c(C)cc(C)cc1C)C(=O)N2C1CC1 [P2.10]	–	–	> 80	–
CCN1C(=O)C(c2c(C)cc(C)cc2C)=C(O)C12CCN(OC)CC2 [P2.11]	–	–	–	melting point: 218 to 221 °C
CON1CCC2(CC1)C(O)=C(c1c(F)ccc(C)c1Cl)C(=O)N2C [P2.13]	> 80	–	–	–
CON1CCC2(CC1)C(O)=C(c1cc(C)c(Cl)cc1C)C(=O)N2C [P2.15]	> 80	–	–	–
CON1CCC2(CC1)C(O)=C(c1c(C)cc(Br)cc1C)C(=O)N2C [P2.16]	–	≥ 80	> 80	pest or weed control at 400 ppm [6]: > 80%
CON1CCC2(CC1)C(O)=C(c1c(C)cccc1C)C(=O)N2C [P2.17]	–	≥ 80	> 80	–
COCCCN1C(=O)C(c2c(C)cc(C)cc2C)=C(O)C12CCN(OC)CC2 [P2.20]	> 80	–	> 80	pest or weed control at 400 ppm [7]: > 80%; pest or weed control at 400 ppm [6]: > 80%
COCOCCN1C(=O)C(c2c(C)cc(C)cc2C)=C(O)C12CCN(OC)CC2 [P2.21]	> 80	≥ 80	> 80	pest or weed control at 400 ppm [6]: > 80%
CON1CCC2(CC1)C(O)=C(c1cc(C)c(C)cc1Br)C(=O)N2C [P2.23]	–	–	–	melting point: 191 to 193 °C
CON1CCC2(CC1)C(O)=C(c1c(C)ccc(C)c1C)C(=O)N2C [P2.24]	–	≥ 80	–	–
CON1CCC2(CC1)C(O)=C(c1cc(C)c(C)cc1C)C(=O)N2C [P2.25]	–	–	–	melting point: 183 to 186 °C
CON1CCC2(CC1)C(O)=C(c1cc(C)c(C)cc1Cl)C(=O)N2C [P2.26, 3-(2-Chloro-4,5-dimethyl-phenyl)-4-hydroxy-8-methoxy-1-methyl-1,8-diaza-spiro[4.5]dec-3-en-2-one]	–	–	–	melting point: 191 to 192 °C
CON1CCC2(CC1)C(O)=C(c1c(C)ccc(Cl)c1C)C(=O)N2C [P2.27]	–	≥ 80	–	–
CON1CCC2(CC1)C(O)=C(c1c(C)cc(C)cc1C)C(=O)N2CC1(C)COC1 [P2.30]	–	≥ 80	–	–
CON1CCC2(CC1)C(O)=C(c1c(C)cc(C)c(Cl)c1C)C(=O)N2C [P2.31]	> 80	≥ 80	> 80	pest or weed control at 400 ppm [6]: > 80%
CON1CCC2(CC1)C(O)=C(c1c(C)cc(C)cc1C)C(=O)N2CC1CCCO1 (stereo not shown) [P2.32]	> 80	–	–	–
CON1CCC2(CC1)C(O)=C(c1c(C)cc(Cl)cc1C)C(=O)N2C [P2.33]	–	≥ 80	> 80	–
CON1CCC2(CC1)C(O)=C(c1c(C)cc(Br)cc1Cl)C(=O)N2C [P2.34]	–	≥ 80	–	–
COc1cc(COC2=C(c3cc(C)ccc3C)C(=O)NC23CCN(OC)CC3)cc(OC)c1OC [P3.1]	–	–	–	pest or weed control at 400 ppm [7]: > 80%
COc1ccc(COC2=C(c3cc(C)ccc3C)C(=O)NC23CCN(OC)CC3)cc1 [P3.2]	–	–	–	pest or weed control at 400 ppm [7]: > 80%
CON1CCC2(CC1)NC(=O)C(c1c(C)cc(C)cc1C)=C2OCc1ccccc1 [P3.4, 4-benzyloxy-8-methoxy-3-(2,4,6-trimethyl-phenyl)-1,8-diaza-spiro[4.5]dec-3-en-2-one]	> 80	–	–	pest or weed control at 400 ppm [7]: > 80%
CON1CCC2(CC1)C(OCc1ccccc1)=C(c1c(C)cc(C)cc1C)C(=O)N2CC1CC1 [P3.8, 4-benzyloxy-1-cyclopropylmethyl-8-methoxy-3-(2,4,6-trimethyl-phenyl)-1,8-diaza-spiro[4.5]dec-3-en-2-one]	> 80	–	–	–
